Assay results: the Kinase Knowledgebase extract (Sharma et al. 2016)

Target: CDK2 (UniProt P24941)
Experiment: Enzyme Assay
Details: concentration not given here

Structure (SMILES)	inhibition [%]
CS(=O)(=O)c1ccccc1S(=O)(=O)Nc1ccc2[nH]nc(-c3cc(Cl)cc(Cl)c3)c2c1	50
CS(=O)(=O)c1ccccc1S(=O)(=O)Nc1ccc2[nH]nc(-c3cccc(Br)c3)c2c1	73
Cc1ccccc1-c1n[nH]c2ccc(NS(=O)(=O)c3ccccc3S(C)(=O)=O)cc12	25
CN(C)c1c(F)c(F)c(S(=O)(=O)Nc2ccc3[nH]nc(-c4cc5ccccc5[nH]4)c3c2)c(F)c1F	53
CS(=O)(=O)c1ccccc1S(=O)(=O)Nc1ccc2[nH]nc(-c3ccc(C#N)cc3)c2c1	86
CNc1n[nH]c2ccc(NS(=O)(=O)c3ccccc3S(C)(=O)=O)cc12	51
CCCCS(=O)(=O)Nc1ccc2[nH]nc(-c3ccccc3)c2c1	30
Nc1n[nH]c2ccc(NS(=O)(=O)c3c(F)cccc3F)cc12	12
C[Si](C)(C)C#Cc1cccc(-c2n[nH]c3ccc(NS(=O)(=O)c4ccccc4S(C)(=O)=O)cc23)c1	7
CS(=O)(=O)c1ccccc1S(=O)(=O)Nc1ccc2[nH]nc(/C=C/c3ccc(F)cc3)c2c1	95
O=S(=O)(Nc1ccc2[nH]nc(-c3ccccc3)c2c1)C1CCNCC1	13
CS(=O)(=O)c1ccccc1S(=O)(=O)Nc1ccc2[nH]nc(/C=C/c3ccc(Cl)cc3)c2c1	96
O=S(=O)(Nc1ccc2[nH]nc(-c3ccccc3)c2c1)c1ccc(Cl)s1	65
CS(=O)(=O)c1ccccc1S(=O)(=O)Nc1ccc2[nH]nc(-c3ccccc3-c3ccccc3)c2c1	27
O=S(=O)(Nc1ccc2[nH]nc(-c3ccccc3)c2c1)c1ccc(F)cc1	56
CS(=O)(=O)c1ccccc1S(=O)(=O)Nc1ccc2[nH]nc(-c3ccc4[nH]ccc4c3)c2c1	73
CS(=O)(=O)c1ccccc1S(=O)(=O)Nc1ccc2[nH]nc(-c3cccc(C(F)(F)F)c3)c2c1	81
O=S(=O)(Nc1ccc2[nH]nc(-c3ccccc3)c2c1)c1ccccc1C(F)(F)F	81
CS(=O)(=O)c1ccccc1S(=O)(=O)Nc1ccc2[nH]nc(-c3ccc(I)cc3)c2c1	20

Structure (SMILES)	inhibition [%]
CS(=O)(=O)c1ccccc1S(=O)(=O)Nc1ccc2[nH]nc(-c3ccc(-c4ccccc4)c(F)c3)c2c1	0
CS(=O)(=O)c1ccccc1S(=O)(=O)Nc1ccc2[nH]nc(N)c2c1	72
CS(=O)(=O)c1ccccc1S(=O)(=O)Nc1ccc2[nH]nc(-c3cccc(OC(F)(F)F)c3)c2c1	60
CN(C)c1cccc2c(S(=O)(=O)Nc3ccc4[nH]nc(-c5ccccc5)c4c3)cccc12	84
O=S(=O)(Nc1ccc2[nH]nc(-c3ccccc3)c2c1)c1cccc2ccccc12	90
CS(=O)(=O)c1ccccc1S(=O)(=O)Nc1ccc2[nH]nc(Nc3ccccc3)c2c1	100
CS(=O)(=O)c1ccc(S(=O)(=O)Nc2ccc3[nH]nc(-c4ccccc4)c3c2)cc1	50
O=C(NCc1ccc(S(=O)(=O)Nc2ccc3[nH]nc(-c4ccccc4)c3c2)s1)c1ccccc1	40
CS(=O)(=O)c1ccccc1S(=O)(=O)Nc1ccc2[nH]nc(-c3ccc(F)cc3)c2c1	94
CN(C)c1cccc2c(S(=O)(=O)Nc3cccc(-c4n[nH]c5ccc(NS(=O)(=O)c6ccccc6S(C)(=O)=O)cc45)c3)cccc12	20
CS(=O)(=O)c1ccccc1S(=O)(=O)Nc1ccc2[nH]nc(-c3cc4ccccc4o3)c2c1	93
CS(=O)(=O)c1ccccc1S(=O)(=O)Nc1ccc2[nH]nc(-c3cccc(F)c3)c2c1	69
Cc1ccccc1S(=O)(=O)Nc1ccc2[nH]nc(-c3ccccc3)c2c1	77
CS(=O)(=O)c1ccccc1S(=O)(=O)Nc1ccc2[nH]nc(-c3cc(C(F)(F)F)cc(C(F)(F)F)c3)c2c1	28
CS(=O)(=O)c1ccccc1S(=O)(=O)Nc1ccc2[nH]nc(-c3cccnc3)c2c1	88
CS(=O)(=O)c1ccccc1S(=O)(=O)Nc1ccc2[nH]nc(-c3cccc(C#N)c3)c2c1	90
Cc1cccc(S(=O)(=O)Nc2ccc3[nH]nc(-c4ccccc4)c3c2)c1	72
CS(=O)(=O)c1ccccc1S(=O)(=O)Nc1ccc2[nH]nc(-c3cccc(Cl)c3)c2c1	80
COc1ccc(-c2n[nH]c3ccc(NS(=O)(=O)c4ccccc4S(C)(=O)=O)cc23)c(OC)c1OC	21

Structure (SMILES)	inhibition [%]
O=C(O)c1cccc(S(=O)(=O)Nc2ccc3[nH]nc(-c4ccccc4)c3c2)c1	40
CS(=O)(=O)c1ccccc1S(=O)(=O)Nc1ccc2[nH]nc(-c3ccccc3Cl)c2c1	52
CSc1ccc(-c2n[nH]c3ccc(NS(=O)(=O)c4ccccc4S(C)(=O)=O)cc23)cc1	84
COC(=O)/C=C/c1n[nH]c2ccc(NS(=O)(=O)c3ccccc3S(C)(=O)=O)cc12	37
CCOc1ccc(-c2n[nH]c3ccc(NS(=O)(=O)c4ccccc4S(C)(=O)=O)cc23)cc1	74
CCOc1cccc(-c2n[nH]c3ccc(NS(=O)(=O)c4ccccc4S(C)(=O)=O)cc23)c1	60
O=S(=O)(Nc1ccc2[nH]nc(-c3ccccc3)c2c1)c1cccs1	80
C=Cc1ccc(-c2n[nH]c3ccc(NS(=O)(=O)c4ccccc4S(C)(=O)=O)cc23)cc1	77
CS(=O)(=O)c1ccccc1S(=O)(=O)Nc1ccc2[nH]nc(-c3cccc(Cl)c3Cl)c2c1	0
COc1ccc2[nH]c(-c3n[nH]c4ccc(NS(=O)(=O)c5ccccc5S(C)(=O)=O)cc34)cc2c1	100
COc1ccc(OC)c(S(=O)(=O)Nc2ccc3[nH]nc(-c4ccccc4)c3c2)c1	51
CCSc1ccc(-c2n[nH]c3ccc(NS(=O)(=O)c4ccccc4S(C)(=O)=O)cc23)cc1	77
O=S(=O)(Nc1ccc2[nH]nc(-c3cc4ccccc4[nH]3)c2c1)c1ccccc1OC(F)(F)F	94
Cc1ccc(-c2n[nH]c3ccc(NS(=O)(=O)c4ccccc4S(C)(=O)=O)cc23)cc1	66
CS(=O)(=O)c1ccccc1S(=O)(=O)Nc1ccc2[nH]nc(-c3ccc(Cl)cc3)c2c1	96
CCCNC(=O)c1n[nH]c2ccc(NS(=O)(=O)c3ccccc3S(C)(=O)=O)cc12	96
CS(=O)(=O)c1ccccc1S(=O)(=O)Nc1ccc2[nH]nc(-c3cc4ccccc4[nH]3)c2c1	99
CC(=O)c1ccc(-c2n[nH]c3ccc(NS(=O)(=O)c4ccccc4S(C)(=O)=O)cc23)cc1	56
CS(=O)(=O)c1ccccc1S(=O)(=O)Nc1ccc2[nH]nc(-c3ccoc3)c2c1	80
